Source: US7557100B2, “Antibacterial agents” (Pfizer Inc., priority 2005, dated 2009)
≈ marks a conversion by molar mass, not a printed value.

Experiments:
[1] = tested on: Staphylococcus aureus SA-1 (UC-76); assay: Microbroth dilution MIC testing against S. aureus; format: cell-based; settings: S. aureus UC76, CAMHB, 35° C., 16 to 24 hours, read-out: Minimum Inhibitory Concentration S. aureus UC76
Procedure: (§1) In this example, the in vitro antibacterial activity of selected compounds was determined against S. aureus and H. influenzae. Except for clarifying or modifying statements, MIC testing followed procedures recommended by the NCCLS^1-2 or followed the descriptions cited below.
(§2) Bacterial Cultures At least the following organisms are included in the screen: Staphylococcus aureus SA-1 (UC-76) and H. influenzae HI-3542. Incubations were at 35° C. Stock bacterial cultures were maintained on Tryptic Soy Agar containing 5% Sheep Blood (BD, Becton Dickinson Microbiology Systems, Cockeysville, Md.), anaerobes were maintained on Anaerobic Blood Agar plates—CDC Formulation (BD), and fastidious organisms were maintained on Chocolate Agar II Plates (BD). Specific conditions of handling are listed below.
(§3) Standardized Organism Inocula Frozen stock cultures were used as the initial source of organisms for performing microbroth dilution MIC testing. Stock cultures were passed on their standard growth medium for at least 1 growth cycle (18 24 hours) prior to their use.
(§4) Most bacteria, unless otherwise noted, were prepared directly from agar plates in 10 mL aliquots of the appropriate broth medium. Bacterial cultures were adjusted to the opacity of a 0.5 McFarland Standard (optical density value of 0.28-0.33 on a Perkin-Elmer Lambda EZ150 Spectrophotometer Wellesley, Mass., set at a wavelength of 600 nm).). The adjusted cultures were diluted 400 fold (0.25 mL inoculum+100 mL broth) in growth media to produce a starting suspension of approximately 5×10^5 colony forming units (CFU)/mL. Unless otherwise noted, bacterial strains were tested in cation adjusted Mueller Hinton Broth (CAMHB).
(§5) Test Compound (“Drug”) Preparation Compounds were solubilized in DMSO. Drug stock solutions were prepared on the day of testing. Drugs were weight corrected for assay content where necessary.
(§6) Drug Dilution Tray Preparation Microbroth dilution stock plates were prepared in two dilution series, 64 to 0.06 μg drug/mL and 0.25 to 0.00025 μg drug/mL. For the high concentration series, 200 μL of stock solution (2 mg/mL) was added to duplicate rows of a 96-well microtiter plate. This was used as the first well in the dilution series. Serial two-fold decremental dilutions were made using a BioMek FX robot (Beckman Coulter Inc., Fullerton, Calif.) with 10 of the remaining 11 wells, each of which contained 100 μL of the appropriate solvent/diluent. Row 12 contained solvent/diluent only and served as the control. For tube one of the low concentration series, 200 μL of an 8 μg/mL stock was added to duplicate rows of a 96-well plate. Serial two-fold dilutions were made as described above.
(§7) Daughter plates were spotted (3.2 μL/well) from the stock plates listed above using the BioMek FX robot and were either used immediately or frozen at −70° C. until use.
(§8) Plate Inoculation Aerobic organisms were inoculated (100 μL volumes) into the thawed plates using the BioMek FX robot. The inoculated plates were placed in stacks of no more than 5 and covered with an empty plate. These plates were incubated 16 to 24 hours in ambient atmosphere according to CLSI guidelines^2.
(§9) Reading the Test After inoculation and incubation, the degree of bacterial growth was estimated visually with the aid of a Test Reading Mirror (Dynex Technologies 220 16) in a darkened room with a single light shining directly through the top of the microbroth tray. The MIC was the lowest concentration of drug that prevented macroscopically visible growth under the conditions of the test. Testing was performed in duplicate. When the MIC values in duplicate tests varied by 1 well (2 fold), the lower values were reported. If the MICs varied by 2 dilutions, the middle value was reported. Greater than this 4 fold variance called for the test to be repeated, after which a similar determination was applied to all values.

H. influenzae HI-3542 = assay: Microbroth dilution MIC testing against H. influenzae; format: cell-based; settings: HI3542, H. influenzae 3542, Haemophilus Test Medium, 35° C., 16 to 24 hours, read-out: Minimum Inhibitory Concentration H. influenzae 3542
Procedure: as §1, §2
Haemophilus was maintained on Chocolate Agar II Plates at room temperature in a candle jar providing a 3 5% CO2 atmosphere.
as §3, §4
Haemophilus influenzae strains were grown on Chocolate Agar II Plates and tested in Haemophilus Test Medium (Remel, Lenexa, Kans.).
as §5, §6, §7, §8
as §9, with “Greater than this 4 fold variance called for the test to be repeated, after which a similar determination was applied to all values.” left out

Row | SMILES | MIC [1] [µg/mL] | MIC (H. influenzae HI-3542) [µg/mL]
1 | COc1cnc(-c2cc3c(c(F)c2F)N2C[C@@H](C)O[C@@H](C)[C@@H]2C2(C3)C(=O)NC(=O)NC2=O)cn1 [Compound 25, (2R,4S,4aS)-9,10-difluoro-8-(5-methoxypyrazin-2-yl)-2,4-dimethyl-1,2,4,4a-tetrahydro-2′H,6H-spiro[1,4-oxazino[4,3-a]quinoline-5,5′-pyrimidine]-2′,4′,6′(1′H,3′H)-trione] | 0.125 (≈ 0.264 µM) | 0.5 (≈ 1.06 µM)
2 | CCOc1cnc(-c2cc3c(c(F)c2F)N2C[C@@H](C)O[C@@H](C)[C@@H]2C2(C3)C(=O)NC(=O)NC2=O)cn1 [Compound 26, (2R,4S,4aS)-8-(5-ethoxypyrazin-2-yl)-9,10-difluoro-2,4-dimethyl-1,2,4,4a-tetrahydro-2′H,6H-spiro[1,4-oxazino[4,3-a]quinoline-5,5′-pyrimidine]-2′,4′,6′(1′H,3′H)-trione] | 0.25 (≈ 0.513 µM) | 1 (≈ 2.05 µM)
